From US9120776B2, “Condensed heterocyclic compound” (Takeda Pharmaceutical Company Limited, priority 2011, dated 2015) come the findings set out here.

In experiment [1] the target is T1, RORγt (Homo sapiens, UniProt P51449).
T1 sequence (P51449 1-497 isoform P51449-2): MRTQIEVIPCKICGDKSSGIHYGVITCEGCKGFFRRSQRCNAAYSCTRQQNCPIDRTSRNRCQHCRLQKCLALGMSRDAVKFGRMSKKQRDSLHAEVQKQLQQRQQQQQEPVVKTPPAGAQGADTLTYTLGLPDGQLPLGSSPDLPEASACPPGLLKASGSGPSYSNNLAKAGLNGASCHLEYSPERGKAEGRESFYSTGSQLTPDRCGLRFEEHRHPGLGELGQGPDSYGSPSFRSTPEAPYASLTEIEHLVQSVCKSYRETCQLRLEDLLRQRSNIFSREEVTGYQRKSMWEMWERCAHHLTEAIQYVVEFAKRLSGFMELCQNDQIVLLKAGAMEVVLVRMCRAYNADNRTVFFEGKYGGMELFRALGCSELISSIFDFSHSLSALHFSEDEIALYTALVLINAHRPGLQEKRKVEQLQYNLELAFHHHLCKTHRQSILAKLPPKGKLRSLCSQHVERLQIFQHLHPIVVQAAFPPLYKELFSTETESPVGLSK
The experiment in a line: Cofactor Recruitment Test (Alpha Screen, biotinylated SRC-1 peptide). Type of experiment: biochemical. Also on record: histidine tag (implied by the Histidine Detection Kit). As to conditions: signal value inhibitory rate at test compound 1 μM. The protocol: Cofactor recruitment test was performed by Alpha Screen (Histidine Detection Kit, PerkinElmer) method. First, a test compound diluted with an assay buffer (50 mM Tris-HCl (pH 7.5), 50 mM KCl, 1 mM DTT, 0.1% BSA) was added to a 384 well plate by 5 μL each. […] The mixture was stood in a dark place for 1 hr, and the signal value was measured by Envision (PerkinElmer).

The test system of experiment [2] is human PBMC. Description: IL17 Production Test in Human PBMC. As to conditions: 72 h, inhibitory rate at 10 μM of test compound, anti-CD3/CD28 stimulation, 3 days, IL-17A by ELISA. The class given is cell-based. The protocol: Peripheral blood mononuclear cells (PBMC) collected from human peripheral blood by a density gradient centrifugation method were stimulated by Dynabeads (registered trade mark; anti-CD3/CD28 antibody) and cultured at 37° C. for 3 days. The compound was dissolved in DMSO and then added thereto. After culture for 3 days under such conditions, the concentration of IL-17A in the culture supernatant obtained by centrifugation was measured by ELISA to evaluate the effect of the compound on IL-17 production.
In general terms: In an ELISA, binding on a coated surface is turned into a signal by an enzyme label.

The subject of experiment [3] is Th17 cells. The experiment in a line: Human Th17 Cell Differentiation Test (IL-17A in culture supernatant, ELISA). Type of experiment: cell-based. As to conditions: 144 h; inhibitory rate at 10 μM of test compound; human CD4 positive naive T cells, 6 days, IL-17A by ELISA. The procedure: CD4 positive naive T cells were isolated from peripheral blood mononuclear cells (PBMC) collected from human peripheral blood by a density gradient centrifugation method. The CD4 positive naive T cells were seeded in a 96 well plate (2×10^4 cells/well), and stimulated (37° C. for culture) with anti-CD 3/28Ab Dynabeads (Invitrogen) for 6 days in the presence of IL-1β, IL-6, IL-23, TGFβ, anti-IFNγ Ab (BioLegend) and anti-IL-4 Ab (BioLegend) to differentiate into Th17 cells. The compound was dissolved in DMSO and then added thereto. After culture for 6 days, the concentration of IL-17A in the culture supernatant obtained by centrifugation was measured by ELISA to evaluate differentiation of the Th17 cells.

The target of experiment [4] is T1, RORγt. Description: Jurkat Reporter Test (human IL-17 ROR response element luciferase, RORγt vector). The class given is cell-based. As to conditions: luminescence level inhibitory rate at test compound 3 μM, Jurkat cells; read-out: inhibitory rate (%). The procedure: The Jurkat cells used for the reporter test were cultured in a culture medium (RPMI (Invitrogen), 10% FCS (AusGeneX), 100 U/mL penicillin, 100 μg/mL streptomycin). On the day of the test, 4×10^7 cells were recovered by a centrifugal operation (1000 rpm, 5 min.) and suspended in PBS (phosphate buffered saline) (Invitrogen). Thereafter, the cells were recovered again by a centrifugal operation, and suspended in 2 mL of R buffer (NEON transfection kit, Invitrogen). […] Gene transfer was performed by Electroporation apparatus (NEON, Invitrogen) under the conditions of pulse voltage 1350 V, interval 10 milliseconds, number of times 3. The cells after gene transfer were suspended in 40 mL of a reaction medium (RPMI, 10% Lipid reduced FCS (HyClone), 10 mM HEPES (pH 7.5), 100 U/mL penicillin, 100 μg/mL streptomycin, 5 μM lovastatin), and plated in a 96 well plate by 90 μL each. A test compound diluted with the reaction medium was added by 10 μL each, and the cells were cultured overnight in an incubator. Bright-Glo (Promega) was added by 100 μL each, and the mixture was stirred at room temperature for 10 min, and the luminescence level was measured by Envision (PerkinElmer).

The test system of experiment [5] is Th17 cells. Description: Mouse Th17 Cell Differentiation Test (IL-17A in culture supernatant, ELISA). As to conditions: 96 h, inhibitory rate at 10 μM of test compound, mouse CD4 positive naive T cells, 4 days, IL-17A by ELISA. The class given is cell-based. The procedure:
CD4 positive naive T cells were collected from the spleen cells of BALB/c mice (female, 8-11w, Charles River Laboratories Japan, Inc.) using CD4+CD62L+ T Cell Isolation kit II (Miltenyi Biotec). The CD4 positive naive T cells in a 96 well plate (3×10^5 cells/well) were stimulated (37° C. for culture) with anti-mouse CD3ε antibody (Bio X cell) (10 μg/mL, solid phase) and anti-CD28 antibody (Bio X cell) (5 μg/mL) for 4 days in the presence of anti-IFN-γ antibody (BioLegend), anti-IL-4 antibody (BioLegend), anti-IL-2 antibody (BioLegend), IL-6, TGF-β and IL-23 to differentiate into Th17 cells. The compound was dissolved in DMSO and then added thereto. The cells were cultured under these conditions for 4 days, and differentiation of the Th17 cells was evaluated by using the concentration of IL-17A, which was measured by ELISA, in the culture supernatant obtained by centrifugation.

Experiment [6] concerns the target T1, RORγt. Description: RORγt Binding Test (TR-FRET, fluorescent-labeled cholesterol). The arrangement: histidine tag (implied by the Histidine Detection Kit). The conditions noted are these: binding inhibitory rate of fluorescent-labeled cholesterol to RORγt at test compound 1 μM. The protocol: The binding activity of the test compound to RORγt was measured by a time resolved fluorescence resonance energy transfer method (TR-FRET) utilizing histidine-tagged RORγt, fluorescent-labeled cholesterol (BODIPY-cholesterol, AVIVA) and terbium-labeled anti-histidine tag antibody (Invitrogen). First, a test compound diluted with an assay buffer (20 mM Tris-HCl (pH 7.5), 100 mM NaCl, 1 mM DTT, 0.1% BSA) was added to a 384 well plate by 3 μL each. Then, RORγt diluted with an assay buffer to 240 nM was added by 3 μL each, after which fluorescent-labeled cholesterol diluted with the assay buffer to 12 μM was added by 3 μL each, and the mixture was stood at room temperature for 20 min. Thereafter, a terbium-labeled anti-histidine tag antibody diluted with the assay buffer to 8 nM was added by 3 μL each. The mixture was stood at room temperature for 20 min, and fluorescence intensity (excitation wavelength 320 nm, fluorescence wavelength 520 nm, delay time 100 microseconds) was measured by Envision (PerkinElmer).
On the technique in general: Time-resolved FRET reads energy transfer from a long-lived donor to a nearby acceptor.

Each structure is given as a SMILES string.

Take `CCn1c(C)c(C)c2cc(NC(=O)CC(C)CC(=O)Nc3ccc(C#N)cc3)ccc21` (stereo not drawn) [Example 3, N-(4-cyanophenyl)-N′-(1-ethyl-2,3-dimethyl-1H-indol-5-yl)-3-methylpentanediamide]: the results for the inhibition at 1 µM in experiment [1] and in experiment [6] were 99.7% and 88.2%, respectively. The inhibition at 10 µM amounted to 73.3% in experiment [2], 80% in experiment [3] and 97.1% in experiment [5]. Moreover, the inhibition at 3 µM in experiment [4] was found to be 82.6%.
On to `CCn1c2c(c3cc(NC(=O)CC(C)CC(=O)Nc4ccc(C#N)cc4)ccc31)CCCC2` (stereo not drawn) [Example 4, N-(4-cyanophenyl)-N′-(9-ethyl-2,3,4,9-tetrahydro-1H-carbazol-6-yl)-3-methylpentanediamide], for which the inhibition at 10 µM in experiment [2] was found to be 88.3%; in experiment [3], 100%; in experiment [5] (Mus musculus, CD4 positive), 97%.
In the case of `CCn1c2ccccc2c2cc(NC(=O)CCCC(=O)Nc3ccc(C#N)cc3)ccc21` [Example 16, N-(4-cyanophenyl)-N′-(9-ethyl-9H-carbazol-3-yl)pentanediamide], the inhibition at 10 µM in experiment [2] is 91%; in experiment [3] it was 96.2%; in experiment [5] (Mus musculus, CD4 positive), 96%.
In the same order, the values of `CCn1c2ccccc2c2cc(NC(=O)CC(C)CC(=O)Nc3ccc(C#N)c(C(F)(F)F)c3)ccc21` (stereo not drawn) [Example 18, N-[4-cyano-3-(trifluoromethyl)phenyl]-N′-(9-ethyl-9H-carbazol-3-yl)-3-methylpentanediamide] are 96%, 98.5% and 95.8%.
As to `CCCn1c2c(c3cc(NC(=O)CC(C)CC(=O)Nc4ccc(C#N)cc4)ccc31)CCCC2` (stereo not drawn) [Example 19, N-(4-cyanophenyl)-3-methyl-N′-(9-propyl-2,3,4,9-tetrahydro-1H-carbazol-6-yl)pentanediamide], the inhibition at 1 µM came out at 101% in experiment [1] and 98.9% in experiment [6]. In addition, the inhibition at 10 µM in experiment [2] was 87%; in experiment [3], 95.2%; in experiment [5], 95.8%. Moreover, the inhibition at 3 µM in experiment [4] was 103%.
Turning to `CC(C)Cn1c2c(c3cc(NC(=O)CC(C)CC(=O)Nc4ccc(C#N)cc4)ccc31)CCCC2` (stereo not drawn) [Example 20, N-(4-cyanophenyl)-3-methyl-N′-[9-(2-methylpropyl)-2,3,4,9-tetrahydro-1H-carbazol-6-yl]pentanediamide], the figures for the inhibition at 1 µM in experiment [1] and in experiment [6] were 101% and 98.7%, respectively. Further, the inhibition at 10 µM came to 84% in experiment [2], 89.9% in experiment [3] and 95.8% in experiment [5]. The inhibition at 3 µM in experiment [4] was found to be 102%.
As to `CCn1c2ccccc2c2cc(NC(=O)CC(C)(O)CCOc3ccc(C#N)c(Cl)c3)ccc21` (stereo not drawn) [Example 30, 5-(3-chloro-4-cyanophenoxy)-N-(9-ethyl-9H-carbazol-3-yl)-3-hydroxy-3-methylpentanamide], the inhibition at 1 µM in experiment [1] was 100%; in experiment [6], 94.4%. In addition, the inhibition at 10 µM in experiment [2] was found to be 100%; in experiment [3] it was 100%; in experiment [5], 96.1%. Besides, the inhibition at 3 µM in experiment [4] amounted to 92.5%.
